Counter-ions that a name gives are not always drawn.
Columns and labels:
[1] = test system: female Western Flower Thrips; test: Y-tube olfactometer bioassay; type: in vivo, Frankliniella occidentalis; conditions: for attractant effect (in words): female Western Flower Thrips; for effect upon female Western Flower Thrips (in words): doses of 1 ng, and 100 ng
Protocol: Thrips were originally obtained from a commercial glasshouse and then maintained on pot chrysanthemums (Dendranthema x grandiflora (Ramat.) Kitamura) at 25° C. under a repeated cycle consisting of 18 hours of light and 6 hours of dark. The culture on chrysanthemums supplied mixed-age adult females, which were attracted to adult males in olfactometer bioassays, so these were used in the bioassays.
The Y-tube has two branches at an angle of 90° and a stem, which are all 60 mm long with internal diameters of 5 mm. The Y-tube was held horizontal and illuminated from above by four fluorescent tubes (950 lux). It was screened by a 10 cm high matt-black card wall, forming a 280 mm×280 mm square, to minimise any external visual influences. A 50 ml round glass flask with a Drechsel head was inserted in the tube before each branch and a semi-circle of filter paper (Whatman No. 1, diameter 42.5 mm), moistened with water, was placed in each to humidify the air. Connections between tubes are either made with brass swagelock connectors or by inserting narrower tubes into slightly wider tubes. All the glassware and the glass wool were rinsed thoroughly in warm water with Teepol ‘L’ neutral detergent (BDH Laboratory Supplies, Poole), then in distilled water, then in acetone, and left to dry overnight in an oven at 200° C. before each experiment. The connecting Teflon tubing and the swagelock connectors were rinsed thoroughly in warm water with Teepol ‘L’ neutral detergent, then in distilled water, then in hexane, and left to dry overnight in a fume cupboard before each run of an experiment.
Zero-grade clean air from a cylinder (supplied by British Oxygen Corporation, Manchester) was passed through an activated charcoal filter and then along Teflon tubes to two flow meters (Supelco, Sigma-Aldrich, Poole) that regulated the air flow to the two branches of a glass Y-tube. The rate in the two branches was 50 mm s^−1 (59 ml min^−1) and in the stem was 100 mm s^−1 (118 ml min^−1) and were checked with a bubble flow meter.
Adults were placed one at a time in the stem of the Y-tube, by transferring them with a fine paintbrush, and allowed to walk up the Y-tube. A choice was recorded when they first crossed a line 20 mm down either branch from the junction of the “Y”. If a choice was not made within 3 min, it was recorded as “no choice” and excluded from the analysis. Each individual was tested twice to provide two successive choices. The sample flasks, connecting tubing and Y-tube were reversed after every 5 individuals. This reduced possible bias from external influences. Each experiment consisted of 1 to 3 runs on separate days to reduce possible bias from external influences. A total of 25 individuals were tested in each run of an experiment, which lasted about 2 h. Experiments were conducted at 25±1° C.
At the start of each run, 0.2 ml of distilled water was placed on the filter paper in each flask. […] The filter papers were removed and replaced with fresh water and test and control substances every time the equipment was reversed.
It was shown that there was no preference in thrips response by testing mixed-age females (in the absence of a test composition) in the Y-tube olfactometer on 3 separate days. The apparatus was set up as before, but with only water and hexane in each flask. Since the arms of the Y-tube were reversed by rotating the stem by 180° after every five individuals, the difference in the number of choices between left and right and between arm A and arm B could be tested separately. There was no preference to the left or right or for arm A or arm B thus establishing that the apparatus was unbiased.
In each case 25 adult females were tested in 2 or 3 separate runs. The compound was applied in 1 μl hexane.
Example 1 was repeated using each of isobornyl 2-methyl butanoate, isobornyl pivalate and lavandulyl valerate in amounts of 0.1 ng. […]

F. occidentalis = test: Field trial: catch on blue sticky traps in sweet pepper greenhouses; type: in vivo, Frankliniella occidentalis
Protocol: The biological activity of neryl (S)-2 methylbutanoate was tested in commercial crops of sweet pepper (var. Habana) grown in greenhouses at Zamora (37°42.945′N, 0°57.720′W) near Torre Pacheco in the Murcia region of Spain. The crops were about 110 cm high, planted in rows 1 m apart, and were naturally infested with a low level of F. occidentalis. Three 2-day long experiments were carried out, alternating between two nearby houses, each with an area of about 6500 m^2.
The compound was released from rubber septa (6.3 mm diameter×10.8 mm long) (100706; Aldrich, UK) that had been preextracted in hexane-dichloromethane and dried in an oven at 50° C. Septa were loaded with solutions of the test compound in hexane or with hexane alone (control). After evaporation of the solvent, the rubber septa were stored in aluminum foil bags. They were placed on traps in the field within 2 hr of preparation.
Blue plastic rectangular takitraps (10×25 cm) (Syngenta Bioline, UK), coated on both surfaces with insect glue, were suspended vertically with the base about 10 cm above crop height, by attaching them to crop support strings with a wooden clothes peg. One rubber septum was stuck to the center of the north-facing side of each trap.
Each experiment was laid out in a randomized complete block design with 20 blocks and one replicate per block. Traps were placed about 3.4 m apart down rows of sweet pepper plants with 16 m between each row of traps. The experiment compared two doses, 30 ng and 30 μg, of neryl (S)-2-methylbutanoate with a control.
Thrips caught on the blue sticky traps were examined under a stereoscopic microscope to identify their sex and to distinguish F. occidentalis from about 2% of the thrips that were other species (Thrips spp., aeolothripids, and phlaeothripids). The data were log10(x+1) transformed and analyzed by two-way ANOVA for females, males, and both sexes combined. Multiple comparisons with the control used Dunnett's multiple comparison test. Statistical analysis was carried out with Minitab 14 (Minitab Inc., Pennsylvania, USA).

[2] = 0.1 ng, filter paper placed in Teflon tube instead of glass flask

CC(C)(C)C(=O)OC1CC2CCC1(C)C2(C)C (stereo not shown) [isobornyl pivalate]
Preference (%) [1, 2]: 61.3%

CCCCC(=O)OC1CC2CCC1(C)C2(C)C (stereo not shown) [isobornyl valerate]
Preference (%) ([1]; 0.002 ng compound in 1 μl hexane, adult females, combined runs): 64.8%
Preference (%) ([1]; 0.02 ng compound in 1 μl hexane, adult females, combined runs): 73.3%
Preference (%) ([1]; 0.1 ng compound in 1 μl hexane, adult females, combined runs): 76.9%
Preference (%) ([1]; 0.2 ng compound in 1 μl hexane, adult females, combined runs): 79.8%
Preference (%) ([1]; 2 ng compound in 1 μl hexane, adult females, combined runs): 60.3%
attractant effect (in words) ([1]; 0.002-2 ng (Table 1) or 0.1 ng (Example 2)): strong attractant

CC(=O)OC/C=C(/C)CCC=C(C)C [Neryl Acetate, reference compound]
effect upon female Western Flower Thrips (in words) [1]: no effect

C=C(C)C(CC=C(C)C)COC(C)=O (stereo not shown) [lavandulyl acetate, reference compound]
attractant effect (in words) ([1]; doses of 0.1 ng, 1 ng, 10 ng, 100 ng and 1000 ng): no attractant effect

CC(C)=CCC/C(C)=C\COC=O [Neryl Formate, reference compound]
effect upon female Western Flower Thrips (in words) [1]: no effect

CC[C@H](C)C(=O)OC/C=C(/C)CCC=C(C)C [N(S)2MB, neryl (S)-2-methylbutanoate]
Mean catch over 2 days ± SE (N = 20) (F. occidentalis; Both sexes, high dose 30 μg on rubber septum): 22.2 ± 2.0
Mean catch over 2 days ± SE (N = 20) (F. occidentalis; Both sexes, low dose 30 ng on rubber septum): 18.7 ± 1.7 ns
Mean catch over 2 days ± SE (N = 20) (F. occidentalis; Females, high dose 30 μg on rubber septum): 9.1 ± 1.2
Mean catch over 2 days ± SE (N = 20) (F. occidentalis; Females, low dose 30 ng on rubber septum): 6.8 ± 0.7 ns
Mean catch over 2 days ± SE (N = 20) (F. occidentalis; Males, high dose 30 μg on rubber septum): 13.2 ± 1.1
Mean catch over 2 days ± SE (N = 20) (F. occidentalis; Males, low dose 30 ng on rubber septum): 11.9 ± 1.2 ns
effect on trap catches (in words) (F. occidentalis; dose of 30 μg, both sexes attracted): increased trap catches significantly

C=C(C)C(CC=C(C)C)COC(=O)CCCC (stereo not shown) [lavandulyl valerate]
Preference (%) [1, 2]: 79.2%

CCC(C)C(=O)OC1CC2CCC1(C)C2(C)C (stereo not shown) [Isobornyl 2-methyl butanoate, isobornyl 2-methyl butanoate]
Preference (%) [1, 2]: 72.9%

From patent US7985412B2, “Method of monitoring/controlling thysanoptera” (Keele University, priority 2004, dated 2011)
